Reference: the supplement of paper PMC11061612

Assays:
Experiment in all cases: combination Emax (second highest fraction inhibited in the dose matrix, 72 h); higher = more inhibition; extreme values may be limits of the assay
[1] = test system: ALL-PO (B-Lymphoblastic Leukemia)
Outline: (§1)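 After 24 hours at 37°C and 5% CO2 in 1536-well plates, cells in DMEM/F12 or RPMI plus 10% FBS received two-drug dose matrices for 72 hours. Viability came from CellTiter-Glo 2.0 luminescence and was scaled as inhibition, anchored at 0 by vehicle wells and at 1 by blank wells. Combination Emax is taken as the second-highest inhibition in the matrix, and Bliss excess as the observed combination effect less EA + EB − EA·EB, with EA and EB the single-agent effects.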

[2] = test system: BE-13 (T-Lymphoblastic Leukemia)
Outline: as §1

[3] = test system: BE2-M17 (Neuroblastoma)
Outline: as §1

[4] = test system: BPH-1 (Non-Cancerous)
Outline: as §1

[5] = test system: ESS-1 (Other Solid Carcinomas)
Outline: as §1

[6] = test system: EW-11 (Ewing's Sarcoma)
Outline: as §1

[7] = test system: GAMG (Glioblastoma)
Outline: as §1

[8] = test system: HH (T-Cell Non-Hodgkin's Lymphoma)
Outline: as §1

[9] = test system: KMRC-20 (Kidney Carcinoma)
Outline: as §1

[10] = test system: KYAE-1 (Esophageal Adenocarcinoma)
Outline: as §1

[11] = test system: LCLC-97TM1 (Non-Small Cell Lung Carcinoma)
Outline: as §1

[12] = test system: LNZTA3WT4 (Low Grade Glioma)
Outline: as §1

[13] = test system: MHH-CALL-2 (B-Lymphoblastic Leukemia)
Outline: as §1

[14] = test system: MPP-89 (Mesothelioma)
Outline: as §1

[15] = test system: NUGC-4 (Gastric Carcinoma)
Outline: as §1

[16] = test system: OVCAR-5 (Ovarian Carcinoma)
Outline: as §1

[17] = test system: SNU-16 (Gastric Carcinoma)
Outline: as §1

[18] = test system: TGBC1TKB (Biliary Tract Carcinoma)
Outline: as §1

[19] = test system: WSU-NHL (B-Cell Non-Hodgkin's Lymphoma)
Outline: as §1

[20] = test system: YAPC (Pancreatic Carcinoma)
Outline: as §1

## CC1(C)CCC(CN2CCN(c3ccc(C(=O)NS(=O)(=O)c4ccc(NCC5CCOCC5)c([N+](=O)[O-])c4)c(Oc4cnc5[nH]ccc5c4)c3)CC2)=C(c2ccc(Cl)cc2)C1 [Venetoclax] + Cn1cnc2c(F)c(Nc3ccc(Br)cc3Cl)c(C(=O)NOCCO)cc21 [Selumetinib] (first compound max 1 µM, 7x7, partner max 3 µM)
[1]
  combination Emax: 0.538
[2]
  combination Emax: 0.461
[3]
  combination Emax: 0.635
[4]
  combination Emax: 0.572
[5]
  combination Emax: 0.864
[6]
  combination Emax: 0.451
[7]
  combination Emax: 0.157
[8]
  combination Emax: 0.132
[9]
  combination Emax: 0.217
[10]
  combination Emax: 0.0726
[11]
  combination Emax: 0.458
[12]
  combination Emax: 0.308
[13]
  combination Emax: 0.482
[14]
  combination Emax: 0.159
[15]
  combination Emax: 0.499
[16]
  combination Emax: 0.572
[17]
  combination Emax: 0.241
[18]
  combination Emax: 0.167
[19]
  combination Emax: 0.745
[20]
  combination Emax: 0.145
